Assay results taken from the NIST ThermoML archive (doi:10.1016/j.jct.2013.09.024).
Numbers after ± are expanded uncertainties.

Test: excess molar enthalpy (molar enthalpy of mixing); xn = mol fraction of the nth substance listed
Details: 101 kPa, Liquid, Flow calorimetry

An excess molar enthalpy (283.15 K, x1 = 0.048) of 0.0418 ± 0.00311 kcal/mol, an excess molar enthalpy (283.15 K, x1 = 0.097) of 0.0805 ± 0.00502 kcal/mol and an excess molar enthalpy (283.15 K, x1 = 0.195) of 0.141 ± 0.0086 kcal/mol were found for `CC1(C)C(=O)[C@]2(C)CC[C@H]1C2` [(-)-fenchone] + CCO in this work. For the same compound, the excess molar enthalpy (283.15 K, x1 = 0.286) was 0.184 ± 0.0112 kcal/mol, the excess molar enthalpy (283.15 K, x1 = 0.395) was 0.218 ± 0.0131 kcal/mol and the excess molar enthalpy (283.15 K, x1 = 0.488) was 0.23 ± 0.0139 kcal/mol. The excess molar enthalpy (283.15 K, x1 = 0.601) was 0.229 ± 0.0139 kcal/mol, the excess molar enthalpy (283.15 K, x1 = 0.701) was 0.21 ± 0.0127 kcal/mol and the excess molar enthalpy (283.15 K, x1 = 0.801) was 0.172 ± 0.0105 kcal/mol. It also gave an excess molar enthalpy (283.15 K, x1 = 0.894) of 0.104 ± 0.00645 kcal/mol, an excess molar enthalpy (283.15 K, x1 = 0.945) of 0.0569 ± 0.00382 kcal/mol and an excess molar enthalpy (298.15 K, x1 = 0.048) of 0.0476 ± 0.00335 kcal/mol. It also gave an excess molar enthalpy (298.15 K, x1 = 0.097) of 0.0913 ± 0.00574 kcal/mol, an excess molar enthalpy (298.15 K, x1 = 0.195) of 0.159 ± 0.0098 kcal/mol and an excess molar enthalpy (298.15 K, x1 = 0.286) of 0.209 ± 0.0127 kcal/mol. For the same compound, the excess molar enthalpy (298.15 K, x1 = 0.395) was 0.249 ± 0.0151 kcal/mol, the excess molar enthalpy (298.15 K, x1 = 0.488) was 0.265 ± 0.016 kcal/mol and the excess molar enthalpy (298.15 K, x1 = 0.601) was 0.262 ± 0.0158 kcal/mol. The excess molar enthalpy (298.15 K, x1 = 0.701) was 0.239 ± 0.0146 kcal/mol, the excess molar enthalpy (298.15 K, x1 = 0.801) was 0.193 ± 0.0117 kcal/mol and the excess molar enthalpy (298.15 K, x1 = 0.894) was 0.12 ± 0.00741 kcal/mol. It also gave an excess molar enthalpy (298.15 K, x1 = 0.945) of 0.065 ± 0.00454 kcal/mol, an excess molar enthalpy (313.15 K, x1 = 0.048) of 0.0528 ± 0.00382 kcal/mol and an excess molar enthalpy (313.15 K, x1 = 0.097) of 0.102 ± 0.00645 kcal/mol. For the same compound, the excess molar enthalpy (313.15 K, x1 = 0.195) was 0.178 ± 0.0108 kcal/mol, the excess molar enthalpy (313.15 K, x1 = 0.286) was 0.234 ± 0.0141 kcal/mol and the excess molar enthalpy (313.15 K, x1 = 0.395) was 0.278 ± 0.0167 kcal/mol. For the same compound, the excess molar enthalpy (313.15 K, x1 = 0.488) was 0.297 ± 0.0179 kcal/mol, the excess molar enthalpy (313.15 K, x1 = 0.601) was 0.291 ± 0.0177 kcal/mol and the excess molar enthalpy (313.15 K, x1 = 0.701) was 0.264 ± 0.016 kcal/mol. It also gave an excess molar enthalpy (313.15 K, x1 = 0.801) of 0.211 ± 0.0129 kcal/mol, an excess molar enthalpy (313.15 K, x1 = 0.894) of 0.131 ± 0.00813 kcal/mol and an excess molar enthalpy (313.15 K, x1 = 0.945) of 0.071 ± 0.00502 kcal/mol. The excess molar enthalpy (328.15 K, x1 = 0.048) was 0.0586 ± 0.00406 kcal/mol, the excess molar enthalpy (328.15 K, x1 = 0.097) was 0.112 ± 0.00693 kcal/mol and the excess molar enthalpy (328.15 K, x1 = 0.195) was 0.196 ± 0.012 kcal/mol. The excess molar enthalpy (328.15 K, x1 = 0.286) was 0.258 ± 0.0155 kcal/mol, the excess molar enthalpy (328.15 K, x1 = 0.395) was 0.306 ± 0.0186 kcal/mol and the excess molar enthalpy (328.15 K, x1 = 0.488) was 0.326 ± 0.0198 kcal/mol. It also gave an excess molar enthalpy (328.15 K, x1 = 0.601) of 0.318 ± 0.0194 kcal/mol, an excess molar enthalpy (328.15 K, x1 = 0.701) of 0.286 ± 0.0174 kcal/mol and an excess molar enthalpy (328.15 K, x1 = 0.801) of 0.227 ± 0.0139 kcal/mol. For the same compound, the excess molar enthalpy (328.15 K, x1 = 0.894) was 0.14 ± 0.00884 kcal/mol and the excess molar enthalpy (328.15 K, x1 = 0.945) was 0.076 ± 0.00526 kcal/mol.
